US20190307818A1, “NOVEL ANTIMICROBIAL COMPOSITIONS AND METHODS OF USE” (priority 2016, published 2019)

Key:
CRISPR-Cas system = assay: Transformation assay, efficiency of transformation (EOT); format: cell-based, P. aeruginosa PA14; conditions: ΔlasI ΔrhII mutant; both AIs added together
Protocol: Bacteria were grown to the appropriate OD600, washed twice at RT in 300 mM sucrose, and electroporated with 1 μg empty vector plasmid pHERD30T or pCR2SP1 containing a phage-derived sequence specifically targeted for degradation by CRISPR-Cas (Bondy-Denomy, Pawluk et al. 2013). 1 ml LB was added and the bacteria were grown 1 h at 37° C. with shaking, after which they were plated on selective medium, e.g., LB medium containing 50 μg/ml gentamicin, and incubated overnight at 37° C. Bacterial colonies were counted using Image Quant Las 4000 and Image Quant TL software (GE Healthcare). Colony forming units (CFU)/ml were quantified and the efficiency of transformation was calculated as the percentage of colonies transformed by pCR2SP1 compared to those transformed by the empty vector control pHERD30T.
This assay utilizes a plasmid as a proxy for a phage, to quantify the frequency with which a foreign genetic material is identified and targeted for degradation by the host bacterial immune system. For bacterial cells having a functional CRISPR-Cas system, the plasmid will be targeted for destruction, and no colonies will grow on the plate, as antibiotic resistance has been lost.
For cells lacking a CRISPR-Cas system or having an impaired or partially functioning CRISPR-Cas system, the electroporated plasmid evades destruction by the bacterial host and is able to replicate. […]

cas3 = cas3 expression by qRT-PCR; format: cell-based, Pseudomonas aeruginosa PA14; conditions: ΔlasI ΔrhII mutant; 100 μM 3-O—C12-HSL and 100 μM C4-HSL given together; normalized to 5S ribosomal RNA
Protocol: In one example protocol, P. aeruginosa PA14 and mutants were grown overnight at 37° C. with shaking in LB broth. Cultures were back diluted 1:100 and grown to the indicated OD600 in the presence or absence of DMSO, 3-O—C12-HSL, C4—HSL (Sigma) or Baicalein (Cayman Chemical) at the specified concentrations. LB was supplemented with 50 μg/ml Gentamicin where appropriate.
For Quantitative Real Time-PCR (qRT-PCR), bacteria were harvested at the indicated OD600. RNA was purified using Trizol (Ambion), DNAse treated using DNA-free (Ambion), cDNA was synthesized using SuperScript® III Reverse Transcriptase (Invitrogen) and quantified using PerfeCTa® SYBR® Green FastMix®, Low ROX (Quanta Biociences).
Quantitative Real Time-PCR (qRT-PCR) was utilized to determine the relative expression of cas3 in each of these mutant strains. Additionally, 100 μM 3-O—C12-HSL and 100 μM C4-HSL, which are AIs that rescue cas3 expression, were added to the cell culture comprising the mutant strain ΔlasI ΔrhII. It is understood that other concentrations of 3-O—C12-HSL and C4—HSL are also suitable, e.g., the concentrations may be in the range of 2 μM to 100 μM, from 10 μM to 100 μM or from 2 μM to 10 μM. In some embodiments, 2 μM of 3-O—C12-HSL and 10 μM of C4-HSL were used. The expression profiles for cas3 for each strain were then normalized based on expression of 5S ribosomal RNA. […]

[1] = system: P. aeruginosa PA14 ΔlasI ΔrhII CRISPR adaptation; assay: CRISPR adaptation (new spacer integration by PCR); format: cell-based; conditions: ΔlasI ΔrhII strain; AIs 2 μM 3-O—C12-HSL+10 μM C4-HSL given together; Baicalein 100 μM with AIs; vs DMSO
Protocol: FIG. 3. QS inhibitors block CRISPR adaptation and disable QS-mediated bacterial immunity. A P. aeruginosa PA14 ΔlasI ΔrhII QS deficient strain was transformed with foreign DNA (e.g., a CRISPR-targeted plasmid). A single colony from the transformation was re-streaked on selective media containing either DMSO (as a control), AIs (2 μM 3-O—C12-HSL+10 μM C4-HSL), or AIs and a QS inhibitor (2 μM 3-O—C12-HSL+10 μM C4-HSL+100 μM Baicalein). Single colonies were tested for integration of new inserted spacers (conferring immunity) against the CRISPR-targeted plasmid. In particular, PCR primers were designed to amplify specific genomic regions into which spacers were inserted. Primers complementary to the region upstream of the CRISPR region and to the second spacer region were designed, and PCR amplification was utilized to test for the presence of the newly inserted spacer (a process referred to as adaptation).
A P. aeruginosa PA14 ΔlasI ΔrhII QS deficient strain was transformed with foreign DNA (e.g., a CRISPR-targeted plasmid such as pCR2SP1, as described above). A single colony from the transformation was re-streaked on selective medium, e.g., LB medium containing 50 μg/ml gentamicin and either DMSO (as a control), AIs (2 μM 3-O—C12-HSL+10 μM C4-HSL), or both AIs and a QS inhibitor (2 μM 3-O—C12-HSL+[…] C4-HSL+100 μM Baicalein QS inhibitor) and incubated at 37° C. O/N. Single colonies were tested for integration of new immunity spacers against the CRISPR-targeted plasmid by PCR using iProof High-Fidelity DNA Polymerase (Bio-Rad) and primers CR2SP check F+R upstream of the CRISPR2 region and in the second spacer. Thus, PCR primers were designed to amplify the genomic region in which the new spacer was present. Primers targeting a sequence upstream of the CRISPR-Cas region and targeting the second spacer region were designed, and PCR amplification was utilized to test for the presence of the new inserted spacer (a portion of the plasmid sequence inserted between the CRISPR locus and spacers). […]

[2] = system: Wild-type P. aeruginosa pyocyanin production; conditions: previously shown; cited from earlier work

CCCCCCCCCC(=O)CC(=O)N[C@H]1CCOC1=O [3-O—C12-HSL]
immune activity (efficiency of transformation) (CRISPR-Cas system): restored immune activity to nearly WT levels
cas3 expression (cas3): restore cas3 expression to WT levels
CRISPR adaptation (fraction of cells in the colony that adapted) [1]: increased the fraction of cells in the colony that adapted

CCCC(=O)N[C@H]1CCOC1=O [Molecule C4-HSL, N-butyryl-L-homoserine lactone]
immune activity (efficiency of transformation) (CRISPR-Cas system): restored immune activity to nearly WT levels
cas3 expression (cas3): restore cas3 expression to WT levels
CRISPR adaptation (fraction of cells in the colony that adapted) [1]: increased the fraction of cells in the colony that adapted

meta-bromothiolactone [mBTL]
pyocyanin production [2]: inhibit pyocyanin production
